Measurements reported in patent US20220062205A1, “TREATMENT OF GASTROINTESTINAL DISORDERS AND SYMPTOMS THEREOF” (Indiana University Research and Technology Corporation, priority 2018, published 2022).

Columns and labels:
Winnie mice [1] = experiment: Immunohistochemistry and histology of distal colon (cross sections and LMMP); type: in vivo, mouse
Description: The small molecular APE1/Ref-1 antagonist; APX3330, was administered via IP injections in Winnie mice at a dose of 25 mg/kg (30 G needle, max volume 200 μl) dissolved in Cremphore (2%) (Sigma-Aldrich): Ethanol (2%) in sterile water (96%). Mice received alternating IP injections twice a day with 12-hour intervals, over the course of two weeks during predominate intestinal inflammation. Winnie-sham treated mice received vehicle injections excluding APX3330 drugs. All mice were monitored, weighed and faecal pellets were collected over the course of treatment.
Distal colon tissues were harvested in oxygenated physiological saline, flushed of faecal content and cut along the mesenteric border. Tissues were pinned down with mucosal side upwards in a Slygard-lined petri dish and were briefly fixed with Zamboni's fixative (2% formaldehyde containing 0.2% picric acid) over night at 4° C. Zamboni's fixative was removed by a serial of washes (3×10 minutes) with dimethyl sulfoxide (DMSO) (Sigma-Aldrich, Sydney, Australia) followed by (3×10 minutes) with 1× phosphate buffered solution (PBS). Tissues were processed for cross sections wholemount longitudinal muscle-myenteric preparations (LMMP). For histological staining, β-tubulin III and α-Smooth muscle actin (SMA) labelling distal colon tissues were pinned and fixed as above without stretching and stored in 50:50 optimum cutting temperature (OCT) compound (Tissue Tek, CA, USA) and frozen in liquid nitrogen-cooled isopentane and OCT and stored at −80° C. until cryo-sectioned (20 μm) onto glass slides for immunohistochemistry (IHC). For immunolabeling glial fibrillary acidic protein (GFAP), microtubule associated protein-2 (MAP2), HMGB1 and APE1, the distal colon LMMPs were stretched to maximum capacity without tearing in Slygard-lined petri dishes and were subjected to fixation and washes as above. To expose the myenteric plexus, removal of mucosa, submucosa and circular muscle was performed prior to IHC.
Immunohistochemistry (IHC) was completed. Specimens were subjected to a one hour incubation at room temperature with 10% normalised donkey serum (NDS) (Merck Millipore, Australia) prior to labelling with primary antibodies (Table 2) in distal colon cross sections and LMMPs. Sections and preparation were washed with 1×PBS (3×10 minutes) and then briefly incubated with fluorophore-conjugated secondary antibodies (Table 2). All specimens were stained with 4′,6′-diamindino-2-pheylindole dihydrochloride (DAPI) to identify immunoreactive cells. Tissues were mounted on glass slides with fluorescent mounting medium (DAKO, North, Sydney, NSW, Australia Tissues for histology were cryo-sectioned at 10 μm, cleared and rehydrated in graded ethanol concentration. For standard hematoxylin and eosin stain (H&E) and Alcian blue stain, sections were immersed in histolene (3×4 minutes), 100% ethanol (2 minutes), 95% ethanol (2 minutes), 70% ethanol (2 minutes), rinsed in tap water (30 seconds), then in hematoxylin (Sigma-Aldrich) (1 minute) or Alcian blue (Sigma-Aldrich) (30 minutes), rinsed in tap water, immersed in Scott's tap water (1 minute) and eosin (Sigma-Aldrich) (5 minutes), rinsed in tap water, immersed in 100% ethanol (2×1 minute) and histolene (4 minutes) and finally mounted on glass slides with DPX mountant. A histological grading system evaluated gross morphological damage on constraints inclusive of mucosal flattening (0=normal, 3=severe flattening), manifestations of haemorrhagic sites (0=none, 3=frequent), damage or distortion to circular muscle (0=normal, 3=substantial thickening and disorganization of muscle layer) and loss to goblet cells (0=none, 3=depleted cells). All slides were coded, and analysis was performed blindly.
Confocal microscopy (Nikon Eclipse Ti multichannel confocal laser scanning system, Nikon, Japan) acquired immunolabelled sections. […]

Winnie mice [2] = experiment: Superoxide production in the myenteric plexus (MitoSOX Red); type: in vivo, mouse; conditions: distal colon myenteric plexus; mean±SEM, n=4
Description: The small molecular APE1/Ref-1 antagonist; APX3330, was administered via IP injections in Winnie mice at a dose of 25 mg/kg (30 G needle, max volume 200 μl) dissolved in Cremphore (2%) (Sigma-Aldrich): Ethanol (2%) in sterile water (96%). Mice received alternating IP injections twice a day with 12-hour intervals, over the course of two weeks during predominate intestinal inflammation. Winnie-sham treated mice received vehicle injections excluding APX3330 drugs. All mice were monitored, weighed and faecal pellets were collected over the course of treatment. MITOSOX™ Red M36008 (Invitrogen, Australia), acquired mitochondrial-derived production of superoxide in the myenteric ganglia. Briefly, distal colon preparations from control C57BL/6, Winnie-sham treated and Winnie-APX3330 treated mice freshly excised to expose the myenteric plexus. Samples were incubated at 37° C. for 40 minutes with 5 μM MITOSOX™ Red M36008. Tissues were washed with oxygenated physiological saline and fixed with Zamboni's fixative for 1-hour followed by (3×10 minute) 1×PBS washes. Prepared tissues were mounted on glass slides with DAKO fluorescent a mounting medium for imaging Images were captured as previously described above. Images were converted into binary and changes in fluorescence were measured in arbitrary units (arb. Units) relative to ganglion area using ImageJ software (National Institute of Health).

[3] = LMMP distal colon, mean±SEM, n=6
[4] = distal colon cross sections, mean±SEM, n=5

SMILES: CCCCCCCCCC(=CC1=C(C)C(=O)C(OC)=C(OC)C1=O)C(=O)O [APX3330]
- goblet cell density (Winnie mice [1]; Alcian blue, distal colon mucosa, mean±SEM, n=4): 46.5±4.3%
- histological grading (Winnie mice [1]; H&E / Alcian blue colon cross sections, mean±SEM, n=5): 4.8±0.7
- APE1 intensity (immunoreactivity density) in the myenteric ganglia (Winnie mice [1]; LMMP colon, mean±SEM, n=4): 6.0±1.4%
- expression of Oxo-8dG-IR (oxidative DNA damage) in myenteric ganglia (Winnie mice [1]; [3]): 2.0±0.9%
- number of myenteric neurons IR for Oxo-8dG (Winnie mice [1]; [3]): 0.9±0.7
- number of APE1-IR cells (Winnie mice [1]; LMMP, compared to control C57BL/6 and Winnie-sham (P<0.01)): significantly decreased
- gross morphology of the colon (H&E stain) (Winnie mice [1]; colon cross sections of treated Winnie mice): attenuate damage to the colon
- size of α-SMA-immunoreactive smooth muscle cells to nuclear size (Winnie mice [1]; distal colon cross sections, circular muscle, mean±SEM, n=5): 75.7±6.4%
- number of α-SMA-IR smooth muscle cells within the circular muscle (Winnie mice [1]; [4]): 45.2±3.1
- β-tubulin (III)-IR nerve fibre density (Winnie mice [1]; [4]): 13.3±0.8
- proportional number of MAP2-IR myenteric neurons (Winnie mice [1]; myenteric ganglia, LMMP distal colon, mean±SEM, n=7): 31.9±2.2%
- number of cells with HMGB1 translocation into the cytosol (Winnie mice [1]; myenteric ganglia, LMMP, mean±SEM, n=4): 0.9±0.3
- GFAP-IR glial cell density relative to ganglion area (Winnie mice [1]; myenteric plexus, LMMP distal colon, mean±SEM, n=4): 64.2±8.8%
- MitoSOX fluorescence (superoxide production) relative to ganglion area (Winnie mice [2]): 19.2±7.5%
